{"source": "patent US10183022B2", "about": "“Pharmaceutical composition for treating ulcerative colitis” (EA Pharma Co., Ltd., priority 2014, dated 2019)", "key": {"[1]": {"test_system": "ulcerative colitis patients in an active stage", "test": "Clinical study, 960 mg orally 3 times a day for 8 weeks: subscore for physician's global assessment of Mayo score", "format": "in vivo, human", "protocol": "(§1) The compound of Example 1 or the compound of Comparative Example 1 was orally administered after meals 3 times a day. The number of the given tablets was 8 per administration (i.e., the amount of the compound (1) of Example 1 administered was 960 mg per administration). The administration period was 8 weeks. The compounds were administered until the timing after the breakfast on the day before the assessment day at Week 8.\n(4) Physician's Global Assessment [Investigation Timings: Weeks 0, 2, 4, and 8 (or Discontinuation Time)]\nThe investigators or sub-investigators conducted a medical interview with the subjects (for abdominal discomfort, systemic state, investigator's finding, subject's impression, and so forth), and investigated the state on each assessment day.\nThe investigators or sub-investigators scored the physician's global assessment according to the following criteria with reference to the other three assessment criteria (stool frequency, bloody stool, and mucosal finding), as well as the abdominal discomfort, systemic state, investigator's finding, subject's impression, and so forth. Note that, on the days of the assessment performed without an endoscope, no mucosal finding was considered in scoring the physician's global assessment."}, "[2]": {"test_system": "ulcerative colitis patients in an active stage", "test": "Clinical study, 960 mg orally 3 times a day for 8 weeks: Riley score (histopathological assessment of large intestinal mucosal biopsy)", "format": "in vivo, human", "protocol": "as §1\nAt the time of the endoscopic examination on the large intestine for the mucosal finding assessment, large intestinal mucosal tissues were sampled (biopsy). The biopsy for the histopathological assessment at Week 0 was conducted during the endoscopic examination on the large intestine for the eligibility determination. […] The sampled tissues were fixed with formalin to prepare histopathological specimens.\nThe histopathological assessment was scored by a histopathological assessment central adjudication committee according to the following criteria. A Riley score is a total score of the following items."}}, "note": "Values joined by “and” are separate entries in the source; they are usually repeats but may differ in a detail not shown here. Identical values can stand only once."}
{"smiles": "COC(=O)[C@H](Cc1ccc(-n2c(=O)c3cc(N(C)C)ccc3n(C)c2=O)cc1)NC(=O)c1c(Cl)cccc1Cl", "note": "[Example 1, methyl(2S)-2-(2,6-dichlorobenzamide)-3-{4-[6-(dimethylamino)-1-methyl-2,4-dioxo-1,4-dihydroquinazolin-3(2H)-yl]phenyl}propanoate]", "values": [{"measurement": "Number of cases, cross tabulation of subscore for physician's global assessment", "setting": "[1]; Week 2 score 0, Week 0 score 0", "result": 0}, {"measurement": "Number of cases, cross tabulation of subscore for physician's global assessment", "setting": "[1]; Week 2 score 0, Week 0 score 1", "result": 0}, {"measurement": "Number of cases, cross tabulation of subscore for physician's global assessment", "setting": "[1]; Week 2 score 0, Week 0 score 2", "result": 3}, {"measurement": "Number of cases, cross tabulation of subscore for physician's global assessment", "setting": "[1]; Week 2 score 0, Week 0 score 3", "result": 0}, {"measurement": "Number of cases, cross tabulation of subscore for physician's global assessment", "setting": "[1]; Week 2 score 1, Week 0 score 0", "result": 0}, {"measurement": "Number of cases, cross tabulation of subscore for physician's global assessment", "setting": "[1]; Week 2 score 1, Week 0 score 1", "result": 3}, {"measurement": "Number of cases, cross tabulation of subscore for physician's global assessment", "setting": "[1]; Week 2 score 1, Week 0 score 2", "result": 19}, {"measurement": "Number of cases, cross tabulation of subscore for physician's global assessment", "setting": "[1]; Week 2 score 1, Week 0 score 3", "result": 0}, {"measurement": "Number of cases, cross tabulation of subscore for physician's global assessment", "setting": "[1]; Week 2 score 2, Week 0 score 0", "result": 0}, {"measurement": "Number of cases, cross tabulation of subscore for physician's global assessment", "setting": "[1]; Week 2 score 2, Week 0 score 1", "result": 0}, {"measurement": "Number of cases, cross tabulation of subscore for physician's global assessment", "setting": "[1]; Week 2 score 2, Week 0 score 2", "result": 26}, {"measurement": "Number of cases, cross tabulation of subscore for physician's global assessment", "setting": "[1]; Week 2 score 2, Week 0 score 3", "result": 0}, {"measurement": "Number of cases, cross tabulation of subscore for physician's global assessment", "setting": "[1]; Week 2 score 3, Week 0 score 0", "result": 0}, {"measurement": "Number of cases, cross tabulation of subscore for physician's global assessment", "setting": "[1]; Week 2 score 3, Week 0 score 1", "result": 0}, {"measurement": "Number of cases, cross tabulation of subscore for physician's global assessment", "setting": "[1]; Week 2 score 3, Week 0 score 2", "result": 0}, {"measurement": "Number of cases, cross tabulation of subscore for physician's global assessment", "setting": "[1]; Week 2 score 3, Week 0 score 3", "result": 0}, {"measurement": "Number of cases, cross tabulation of subscore for physician's global assessment", "setting": "[1]; Week 4 score 0, Week 0 score 0", "result": 0}, {"measurement": "Number of cases, cross tabulation of subscore for physician's global assessment", "setting": "[1]; Week 4 score 0, Week 0 score 1", "result": 0}, {"measurement": "Number of cases, cross tabulation of subscore for physician's global assessment", "setting": "[1]; Week 4 score 0, Week 0 score 2", "result": 7}, {"measurement": "Number of cases, cross tabulation of subscore for physician's global assessment", "setting": "[1]; Week 4 score 0, Week 0 score 3", "result": 0}, {"measurement": "Number of cases, cross tabulation of subscore for physician's global assessment", "setting": "[1]; Week 4 score 1, Week 0 score 0", "result": 0}, {"measurement": "Number of cases, cross tabulation of subscore for physician's global assessment", "setting": "[1]; Week 4 score 1, Week 0 score 1", "result": 3}, {"measurement": "Number of cases, cross tabulation of subscore for physician's global assessment", "setting": "[1]; Week 4 score 1, Week 0 score 2", "result": 23}, {"measurement": "Number of cases, cross tabulation of subscore for physician's global assessment", "setting": "[1]; Week 4 score 1, Week 0 score 3", "result": 0}, {"measurement": "Number of cases, cross tabulation of subscore for physician's global assessment", "setting": "[1]; Week 4 score 2, Week 0 score 0", "result": 0}, {"measurement": "Number of cases, cross tabulation of subscore for physician's global assessment", "setting": "[1]; Week 4 score 2, Week 0 score 1", "result": 0}, {"measurement": "Number of cases, cross tabulation of subscore for physician's global assessment", "setting": "[1]; Week 4 score 2, Week 0 score 2", "result": 18}, {"measurement": "Number of cases, cross tabulation of subscore for physician's global assessment", "setting": "[1]; Week 4 score 2, Week 0 score 3", "result": 0}, {"measurement": "Number of cases, cross tabulation of subscore for physician's global assessment", "setting": "[1]; Week 4 score 3, Week 0 score 0", "result": 0}, {"measurement": "Number of cases, cross tabulation of subscore for physician's global assessment", "setting": "[1]; Week 4 score 3, Week 0 score 1", "result": 0}, {"measurement": "Number of cases, cross tabulation of subscore for physician's global assessment", "setting": "[1]; Week 4 score 3, Week 0 score 2", "result": 0}, {"measurement": "Number of cases, cross tabulation of subscore for physician's global assessment", "setting": "[1]; Week 4 score 3, Week 0 score 3", "result": 0}, {"measurement": "Number of cases, cross tabulation of subscore for physician's global assessment", "setting": "[1]; Week 8 score 0, Week 0 score 0", "result": 0}, {"measurement": "Number of cases, cross tabulation of subscore for physician's global assessment", "setting": "[1]; Week 8 score 0, Week 0 score 1", "result": 1}, {"measurement": "Number of cases, cross tabulation of subscore for physician's global assessment", "setting": "[1]; Week 8 score 0, Week 0 score 2", "result": 6}, {"measurement": "Number of cases, cross tabulation of subscore for physician's global assessment", "setting": "[1]; Week 8 score 0, Week 0 score 3", "result": 0}, {"measurement": "Number of cases, cross tabulation of subscore for physician's global assessment", "setting": "[1]; Week 8 score 1, Week 0 score 0", "result": 0}, {"measurement": "Number of cases, cross tabulation of subscore for physician's global assessment", "setting": "[1]; Week 8 score 1, Week 0 score 1", "result": 2}, {"measurement": "Number of cases, cross tabulation of subscore for physician's global assessment", "setting": "[1]; Week 8 score 1, Week 0 score 2", "result": 28}, {"measurement": "Number of cases, cross tabulation of subscore for physician's global assessment", "setting": "[1]; Week 8 score 1, Week 0 score 3", "result": 0}, {"measurement": "Number of cases, cross tabulation of subscore for physician's global assessment", "setting": "[1]; Week 8 score 2, Week 0 score 0", "result": 0}, {"measurement": "Number of cases, cross tabulation of subscore for physician's global assessment", "setting": "[1]; Week 8 score 2, Week 0 score 1", "result": 0}, {"measurement": "Number of cases, cross tabulation of subscore for physician's global assessment", "setting": "[1]; Week 8 score 2, Week 0 score 2", "result": 14}, {"measurement": "Number of cases, cross tabulation of subscore for physician's global assessment", "setting": "[1]; Week 8 score 2, Week 0 score 3", "result": 0}, {"measurement": "Number of cases, cross tabulation of subscore for physician's global assessment", "setting": "[1]; Week 8 score 3, Week 0 score 0", "result": 0}, {"measurement": "Number of cases, cross tabulation of subscore for physician's global assessment", "setting": "[1]; Week 8 score 3, Week 0 score 1", "result": 0}, {"measurement": "Number of cases, cross tabulation of subscore for physician's global assessment", "setting": "[1]; Week 8 score 3, Week 0 score 2", "result": 0}, {"measurement": "Number of cases, cross tabulation of subscore for physician's global assessment", "setting": "[1]; Week 8 score 3, Week 0 score 3", "result": 0}, {"measurement": "Riley score, Lower quartile", "setting": "[2]; Week 0", "result": 9.0}, {"measurement": "Riley score, Maximum", "setting": "[2]; Week 0", "result": 17}, {"measurement": "Riley score, Mean", "setting": "[2]; Week 0", "result": "11.8±2.8 and 11.8"}, {"measurement": "Riley score, Median", "setting": "[2]; Week 0", "result": 12.0}, {"measurement": "Riley score, Minimum", "setting": "[2]; Week 0", "result": 6}, {"measurement": "Riley score, Upper quartile", "setting": "[2]; Week 0", "result": 14.0}, {"measurement": "Riley score, Lower quartile", "setting": "[2]; Week 8", "result": 6.0}, {"measurement": "Riley score, Maximum", "setting": "[2]; Week 8", "result": 16}, {"measurement": "Riley score, Mean", "setting": "[2]; Week 8", "result": "8.6±3.4 and 8.6"}, {"measurement": "Riley score, Median", "setting": "[2]; Week 8", "result": 9.0}, {"measurement": "Riley score, Minimum", "setting": "[2]; Week 8", "result": 3}, {"measurement": "Riley score, Upper quartile", "setting": "[2]; Week 8", "result": 11.0}, {"measurement": "Riley score, difference in mean between Example 1 and Comparative Example 1", "setting": "[2]; Week 8", "result": "−1.96"}]}
